Measurements published in US20030044497A1, “Process to treat fish with tasteless smoke or carbon monoxide through the respiratory and circulatory systems” (priority 2001, published 2003).

Assays:
[1] = CO gill absorption formula calculation for tuna; conditions: yellowfin tuna, hemoglobin 11-12 grams/deciliter x 1.39
Method: Hemoglobin CO capacity is 1.39 multiplied times the hemoglobin concentration in the blood which gives ml of CO per gram of Hb per deciliter of blood. For example, from the cardiorespiratory table above the hemoglobin concentration of yellowfin tuna is 11-12 grams/deciliter and when multiplied by 1.39 the result is 15.3-16.7 ml CO/deciliter of blood as the COHb capacity of yellowfin.
Maximum saturation time is a function of the gill absorption rate and reaching saturation equilibrium within the fish blood and the fish tissue. This absorption rate has two components, the CO bound to the Hb and the free CO diffused through the gills directly into the blood plasma. It can be computed by the following relationship:
CO gill absorption=(cardiac output*(Hb*1.39*%sat)*wt)+((cardiac output*(0.029*PCO)/100)*wt)
Cardiac output is in ml blood/min/kg; Hb is blood hemoglobin in grams/ml (Hb is divided by 100 to convert dl to ml; wt is fish weight in kg; 0.0029 is the solubility of CO in mlCO/dl; PCO is the partial pressure of CO in mmHg (0.0029*PCO) is divided by 100 to convert dl to ml.
From the cardiorespiratory function table above, we assume a yellowfin tuna with wt=1 kg; Hb=0.11 gm/ml; cardiac output=115 ml/min/kg; %sat=100%; and PCO=228 mmHg which is the partial pressure of tasteless smoke comprised of 30% CO. […]

[2] = 24 degrees Centigrade, one atmosphere, 20% reduction for seawater medium
Text: The volume of gas, vo, (in milliliters STPD) dissolved in one liter of water at one atmosphere pressure (760 mm Hg) is expressed by the following formula:
vo=absorption coefficient×(V×Po)
where V is the volume of the solvent, and Po is the partial pressure of the gas in atmospheres. Therefore, the amount of gas dissolved is dependent upon its partial pressure in a linear relationship.
The coefficient of solubility is defined as the volume of the gas taken up by a unit volume of the solvent under a particular set of temperature and pressure conditions. If v is the volume of the dissolved gas, measured at temperature T and partial pressure Pg atm, with To equal to 0 degrees Centigrade, then:

[3] = tested on: hemoglobin; conditions: cited from earlier work
[4] = liquid water or blood plasma; cited from earlier work
[5] = Increase of CO concentration in treated flesh; conditions: treated fish flesh or other meats
Method: However, when natural fish flesh or other meats are treated with carbon monoxide the concentrations in the flesh can increase incrementally from approximately 1.1 to 20 times and on occasion to as much as 80 times. These observed and measured increases in carbon monoxide in the flesh are dependent upon several factors including the quantity of myoglobin in the fish and other meats, carbon monoxide concentration, time, and method of exposure.

[6] = tested on: Humans; conditions: cited from earlier work

[C-]#[O+] [CO, carbon monoxide]
COHb capacity of blood [1]: 15.3-16.7 ml CO/deciliter of blood
maximum solubility [2]: 17.63 ml CO per liter H2O
P50 partial pressure at which half the hemoglobin is saturated [3]: 0.4 mmHg
solubility constant [4]: 0.029 mlCO/liter H2O/mmHgCO
increase of CO concentration in the flesh over natural, on occasion [5]: ≤ 80 times
COHb level at which rapid death occurs [6]: exceed 80%
half-life (time for a 50% COHb reduction in the blood) [6]: 5 h

O=O [O2, oxygen, reference compound]
solubility constant [4]: 0.030 ml O2/liter H2O/mm1Hg O2
